One experiment deals with LPA1 (Homo sapiens, UniProt Q92633). Briefly: LPA1 Migration Assay (Oris). The format is cell-based. Also noted: host or cells: primary fibroblasts (lung, dermal), HFL-1, 3T3 and CHO cells expressing LPA1R. Conditions: read-out: Cell Migration EC50. From the text:
LPA1 Migration Assay Migration of primary fibroblasts (including lung, dermal), HFL-1, 3T3 and CHO cells expressing LPA1R were monitored using the Oris™ assay (Platypus Technologies, Madison, Wis.). These cells were dye (Cell Tracker Green™) loaded and serum starved for 12-24 hrs. In response to chemoattractants such as LPA and serum, the cells migrated inward in to the exclusion (detection) zone. After fixing, fluorescent cells in the detection zone were counted using a high content reader. The ability of LPA1 antagonists to inhibit cell migration is quantified by plotting cell number vs. compound concentration and curve fitting the resulting dose-response curve to a 4 parameter logistic function.

A further experiment has as its target T1, LPA/S1P GPCR of interest (Homo sapiens, UniProt Q92633).
T1 construct: host or cells: CHO
The experiment can be described thus: Beta-Arrestin based assay (PathHunter). Type of experiment: cell-based. In short, it runs like this: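 EA Parental CHO cells (DiscoverX) were transfected with FuGENE (Roche) using CMV promoter-driven DNA constructs encoding the LPA/S1P GPCR of interest fused to a ProLink tag. Beta-arrestin recruitment in agonist mode was assessed 24-48 hrs later with PathHunter kits. Tests ran in quadruplicate in white 384 well plates, and end point luminescence was fit to a 4 parameter logistic function.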

A value given as a limit tells only on which side of the number the result lay.

T1 sequence (Q92633 whole entry): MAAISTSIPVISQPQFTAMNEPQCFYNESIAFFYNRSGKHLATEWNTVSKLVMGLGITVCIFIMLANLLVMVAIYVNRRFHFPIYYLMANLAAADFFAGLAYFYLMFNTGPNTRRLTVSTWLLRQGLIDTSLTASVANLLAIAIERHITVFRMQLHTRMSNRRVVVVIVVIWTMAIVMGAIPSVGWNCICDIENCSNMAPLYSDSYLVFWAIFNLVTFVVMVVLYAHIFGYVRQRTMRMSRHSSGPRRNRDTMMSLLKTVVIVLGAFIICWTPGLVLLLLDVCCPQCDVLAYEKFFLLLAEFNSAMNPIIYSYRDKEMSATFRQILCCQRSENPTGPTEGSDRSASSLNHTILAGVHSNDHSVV
LPA1, sequence (Q92633 whole entry): as above

On to `Cc1noc(-c2ccc(-c3ccc4c(c3)CCCC4C(=O)O)cc2)c1NC(=O)O[C@H](C)c1ccccc1` (mixture of isomers) [IT039], for which the EC50 at LPA1 was above 500 nM.

In the case of `Cc1noc(C#Cc2ccc3cc(C4(CC(=O)O)CC4)ccc3c2)c1NC(=O)O[C@H](C)c1ccccc1` [IT003], on LPA1, the EC50 lay in the range of 50 to 500 nM.

On to `Cc1noc(-c2ccc(-c3ccc4c(c3)NC(=O)CC4C(=O)O)cc2)c1NC(=O)O[C@H](C)c1ccccc1` (stereo partly shown) [IT011], for which the EC50 on LPA1 was above 500 nM.

Turning to `C[C@@H](OC(=O)Nc1c(C#Cc2ccc3cc(C4(C(=O)O)CC4)ccc3c2)cnn1C)c1ccccc1` [IT014], the EC50 on LPA1 fell in the range of 50 to 500 nM.

With `C[C@@H](OC(=O)Nc1c(C#Cc2ccc3cc(C4(C(=O)O)CC4)ccc3c2)cnn1C1CC1)c1ccccc1` [IT015], the EC50 at LPA1 lay within 50 to 500 nM.

On to `CCn1ncc(C#Cc2ccc3cc(C4(C(=O)O)CC4)ccc3c2)c1NC(=O)O[C@H](C)c1ccccc1` [IT016], for which the EC50 at LPA1 was 50 to 500 nM.

`C[C@@H](OC(=O)Nc1c(-c2ccc(-c3ccc(C4(C(=O)O)CC4)cc3)cc2)sc2ncccc12)c1ccccc1` [IT031]: the EC50 at LPA1 was in the range of 50 to 500 nM.

In the case of `C[C@@H](OC(=O)Nc1c(-c2ccc(-c3ccc(C4(C(=O)O)CC4)cc3)cc2)nc2cnccn12)c1ccccc1` [IT032], the EC50 on LPA1 fell in the range of 50 to 500 nM.

For `Cc1nsc(C#Cc2cc3sc(C4(C(=O)O)CC4)cc3s2)c1NC(=O)O[C@H](C)c1ccccc1` [IT034], the EC50 at LPA1 was in the range of 50 to 500 nM.

In the case of `C[C@@H](OC(=O)Nc1c(C#Cc2ccc3cc(C4(C(=O)O)CC4)ccc3c2)sc2ncccc12)c1ccccc1` [IT035], the EC50 at LPA1 lay in the range of 50 to 500 nM.

As to `Cc1nsc(-c2cc(F)c(-c3ccc(C4(C(=O)O)CCOCC4)cc3)cc2F)c1NC(=O)O[C@H](C)c1ccccc1` [IT042], the EC50 at LPA1 was 50 to 500 nM.

As for `C[C@@H](OC(=O)Nc1c(-c2ccc(-c3ccc(C4(C(=O)O)CC4)cc3)cc2)nc2ncccn12)c1ccccc1` [IT043], the EC50 on LPA1 was in the range of 50 to 500 nM.

`C[C@@H](OC(=O)Nc1c(-c2cc(F)c(-c3ccc(C4(C(=O)O)CCOCC4)cc3)cc2F)cnn1C)c1ccccc1` [IT044]: the EC50 on LPA1 was 50 to 500 nM.

As for `Cc1nsc(-c2ccc(-c3cc4sc(C5(C(=O)O)CC5)cc4s3)cc2)c1NC(=O)O[C@H](C)c1ccccc1` [IT046], the EC50 on LPA1 lay within 50 to 500 nM.

In the case of `Cc1noc(C#Cc2cc3sc(C4(C(=O)O)CC4)cc3s2)c1NC(=O)OCc1ccccc1` [IT048], at LPA1, the EC50 was in the range of 50 to 500 nM.

As to `C[C@@H](OC(=O)Nc1c(-c2cc(F)c(-c3ccc(C4(C(=O)O)CC4)cc3)cc2F)nn2ccccc12)c1ccccc1` [IT049], the EC50 at LPA1 is 50 to 500 nM.

In the case of `C[C@@H](OC(=O)Nc1c(-c2ccc(-c3cc4sc(C5(C(=O)O)CC5)cc4s3)cc2)nnn1C)c1ccccc1` [IT050], the EC50 at LPA1 lay within 50 to 500 nM.

As for `C[C@@H](OC(=O)Nc1c(-c2ccc(-c3ccc(C4(C(=O)O)CC4)cc3)cc2)nn2cccnc12)c1ccccc1` [IT052], the EC50 on LPA1 is above 500 nM.

`C[C@@H](OC(=O)Nc1c(-c2ccc(-c3cc4sc(C5(C(=O)O)CC5)cc4s3)cc2)cnn1C)c1ccccc1` [IT056]: the EC50 on LPA1 lay in the range of 50 to 500 nM.

For `C[C@@H](OC(=O)Nc1c(-c2cc(F)c(-c3ccc(C4(C(=O)O)CC4)cc3)cc2F)nn2ncccc12)c1ccccc1` [IT061], on LPA1, the EC50 lay within 50 to 500 nM.

Turning to `C[C@@H](OC(=O)Nc1c(C#Cc2ccc3cc(C4(C(=O)O)CC4)ccc3c2)nnn1C)c1ccccc1` [IT064], the EC50 on LPA1 is 50 to 500 nM.

Take `Cc1noc(C#Cc2ccc3cc(CC4(C(=O)O)CC4)ccc3c2)c1NC(=O)O[C@H](C)c1ccccc1` [IT065]: the EC50 on LPA1 was above 500 nM.

As to `C[C@@H](OC(=O)Nc1c(C2CCC(c3ccc(C4(C(=O)O)CC4)cc3)CC2)cnn1C)c1ccccc1` (stereo partly shown) [IT066], the EC50 at LPA1 was above 500 nM.

As for `Cc1nnn(-c2cc(F)c(-c3cc4sc(C5(C(=O)O)CC5)cc4s3)cc2F)c1NC(=O)O[C@H](C)c1ccccc1` [IT067], the EC50 on LPA1 is above 500 nM.

`C[C@@H](OC(=O)Nc1c(C#Cc2cc3sc(C4(C(=O)O)CC4)cc3s2)nnn1C)c1ccccc1` [IT069]: on LPA1, the EC50 was 50 to 500 nM.

On to `C[C@@H](OC(=O)Nc1c(-c2cc(F)c(-c3cc4sc(C5(C(=O)O)CC5)cc4s3)cc2F)nnn1C)c1ccccc1` [IT071], for which the EC50 at LPA1 fell in the range of 50 to 500 nM.

As to `C[C@@H](OC(=O)Nc1c(C#Cc2cc3sc(C4(C(=O)O)CC4)cc3s2)oc2ccccc12)c1ccccc1` [IT074], the EC50 on LPA1 was above 500 nM.

As for `C[C@@H](OC(=O)Nc1c(-c2cc(F)c(-c3ccc(C4(C(=O)O)CC4)cc3)cc2F)oc2ccccc12)c1ccccc1` [IT075], the EC50 at LPA1 was 50 to 500 nM.

Regarding `COCCOC(=O)C1(c2cc3sc(C#Cc4cnn(C)c4NC(=O)O[C@H](C)c4ccccc4)cc3s2)CC1` [IT084], the EC50 on LPA1 was 50 to 500 nM.

Consider `CCOC(=O)C1(c2cc3sc(C#Cc4cnn(C)c4NC(=O)O[C@H](C)c4ccccc4)cc3s2)CC1` [IT085], for which the EC50 at LPA1 is above 500 nM.

Consider `CC(C)OC(=O)C1(c2cc3sc(C#Cc4cnn(C)c4NC(=O)O[C@H](C)c4ccccc4)cc3s2)CC1` [IT086], for which the EC50 on LPA1 was above 500 nM.

`COc1ccccc1OC(=O)C1(c2cc3sc(C#Cc4cnn(C)c4NC(=O)O[C@H](C)c4ccccc4)cc3s2)CC1` [IT088]: on LPA1, the EC50 fell in the range of 50 to 500 nM.

Take `C[C@@H](OC(=O)Nc1c(-c2cc3sc(-c4ccc(C5(C(=O)O)CC5)c(S(C)(=O)=O)c4)cc3s2)nnn1C)c1ccccc1` [IT442]: the EC50 at LPA/S1P GPCR of interest was above 500 nM.

Turning to `C[C@@H](OC(=O)Nc1c(-c2cc3sc(-c4ccc(CC(=O)O)c(S(C)(=O)=O)c4)cc3s2)nnn1C)c1ccccc1` [IT443], the EC50 at LPA/S1P GPCR of interest is above 500 nM.

Regarding `Cc1noc(-c2ccc(-c3ccc(Oc4c(C(=O)O)ncn4C)cc3)cc2)c1NC(=O)O[C@H](C)c1ccccc1` [IT444], the EC50 on LPA/S1P GPCR of interest is below 50 nM.

At LPA/S1P GPCR of interest, `C[C@@H](OC(=O)Nc1c(-c2cc3sc(-c4ccc(CC(=O)O)c(S(C)(=O)=O)c4)cc3s2)cnn1C)c1ccccc1` [IT445] gave an EC50 above 500 nM.

`Cc1nsc(-c2cc3sc(-c4ccc(C5(C(=O)O)CC5)c(S(C)(=O)=O)c4)cc3s2)c1NC(=O)O[C@H](C)c1ccccc1` [IT458]: the EC50 on LPA/S1P GPCR of interest was above 500 nM.

Compound `C[C@@H](OC(=O)Nc1c(-c2ccc(C#CC(=O)N(C)CCC(=O)O)cc2)cnn1C)c1ccccc1` [IT466] registered an EC50 at LPA/S1P GPCR of interest above 500 nM.

With `C[C@@H](OC(=O)Nc1c(-c2cc3sc(-c4cc(F)c(Oc5ncccc5C(=O)O)c(F)c4)cc3s2)cnn1C)c1ccccc1` [IT470], the EC50 on LPA/S1P GPCR of interest was below 50 nM.

`Cc1noc(-c2ccc(-c3ccc(Oc4nnn(C)c4C(=O)O)cc3)cc2)c1NC(=O)O[C@H](C)c1ccccc1` [IT471] came in with an EC50 on LPA/S1P GPCR of interest of 50 to 500 nM.

On to `C[C@@H](OC(=O)Nc1nn(C)cc1-c1ccc(-c2cc(F)c(Oc3ncccc3C(=O)O)c(F)c2)cc1)c1ccccc1` [IT472], for which the EC50 on LPA/S1P GPCR of interest is above 500 nM.

`C[C@@H](OC(=O)Nc1c(-c2cc(F)c(-c3cc(F)c(Oc4ncccc4C(=O)O)c(F)c3)cc2F)cnn1C)c1ccccc1` [IT473]: the EC50 at LPA/S1P GPCR of interest is below 50 nM.

`C[C@@H](OC(=O)NC1=C(c2ccc(-c3cc(F)c(OC(C)(C)C(=O)O)c(F)c3)cc2)OC2C=CC=CC12)c1ccccc1` (stereo partly shown) [IT501] returned an EC50 at LPA/S1P GPCR of interest of 50 to 500 nM.

As to `C[C@@H](OC(=O)Nc1c(-c2ccc(-c3ccc(OC(C)(C)C(=O)O)c(F)c3)cc2)oc2ccccc12)c1ccccc1` [IT504], on LPA/S1P GPCR of interest, the EC50 fell in the range of 50 to 500 nM.

Compound `C[C@@H](OC(=O)Nc1c(-c2ccc(-c3ccc(OC(C)(C)C(=O)O)cc3)cc2)oc2ccccc12)c1ccccc1` [IT508] displayed an EC50 on LPA/S1P GPCR of interest of 50 to 500 nM.

The compound `C[C@@H](OC(=O)Nc1c(-c2ccc(-c3cc(F)c(Oc4cc(F)ccc4C(=O)O)c(F)c3)cc2)nnn1C)c1ccccc1` [IT514] returned an EC50 on LPA/S1P GPCR of interest below 50 nM.

(Values after patent US20140213538A1, “LYSOPHOSPHATIDIC ACID RECEPTOR ANTAGONISTS” (InterMune, Inc., priority 2013, published 2014).)
